Test results from PubChem BioAssay (NCI).
Several values for one entry are separate records, joined by “and”; a condition that tells them apart may be missing. Equal values may be shown once.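 Each compound was tested at five concentrations against cells in 96-well plates for 48 hours. Abbreviation: GI50, concentration required for 50% inhibition of growth. At the TGI there is no net growth.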

Assays:
Test in all cases: DTP human tumour cell line panel, 48 h
[1] = system: NCI-H226 lung
[2] = system: UACC-257 melanoma
[3] = system: HOP-62 NSCLC
[4] = system: HL-60(TB) leukemia
[5] = system: TK-10 renal
[6] = system: SK-MEL-5 melanoma
[7] = system: MDA-MB-231 breast
[8] = system: RXF 393 renal
[9] = system: LOX IMVI melanoma
[10] = system: HS 578T breast

SMILES	GI50 [1]	TGI [1]	GI50 [2]	TGI [2]	GI50 [3]	TGI [3]	GI50 [4]	TGI [4]	GI50 [5]	TGI [5]	GI50 [6]	TGI [6]	GI50 [7]	TGI [7]	GI50 [8]	TGI [8]	GI50 [9]	TGI [9]	GI50 [10]	TGI [10]
CCOc1ccc(-c2nonc2NC(=O)c2cccc(C)c2)cc1OCC	> 100 µM	> 100 µM	> 100 µM	> 100 µM	> 100 µM	> 100 µM	> 100 µM	> 100 µM	22.7 µM	46.8 µM	> 100 µM	> 100 µM	19.5 µM	62.5 µM	> 100 µM	> 100 µM	> 100 µM	> 100 µM	> 100 µM	> 100 µM
O=C1C(Cl)=C(Nc2cccc(Cl)c2)C(=O)N1Cc1ccccc1Cl	0.296 µM	2.9 µM	12.8 µM	30.9 µM	15.8 µM	37.9 µM	3.15 µM	19.6 µM	12.1 µM	30 µM	3.37 µM	14.3 µM	2.4 µM	15.1 µM	1.26 µM	6.53 µM	1.64 µM	3.76 µM	9.4 µM	56.4 µM
CC(=O)[C@@]1(O)CC[C@H]2[C@@H]3C[C@H](C)C4=CC(=O)CC[C@]4(C)[C@H]3[C@@H](O)C[C@@]21C		> 100 µM		> 100 µM		> 100 µM		> 100 µM		> 100 µM		> 100 µM		> 100 µM		> 100 µM		> 100 µM		> 100 µM
COc1ncc(-c2ccc3nccc(-c4ccnnc4)c3c2)cc1NS(=O)(=O)c1ccc(F)cc1F	0.0269 µM and 0.0208 µM	> 3.68 µM and 2.91 µM	0.00627 µM and < 0.01 µM	0.378 µM and 0.0615 µM	0.00803 µM and < 0.0122 µM	1.93 µM and 3.02 µM	0.0224 µM and < 0.01 µM	> 4.01 µM and 1.21 µM	0.00325 µM and < 0.01 µM	0.0831 µM and 0.0719 µM	0.0237 µM and 0.0154 µM	0.141 µM and 0.0966 µM	0.0392 µM and 0.0439 µM	1.83 µM	0.0048 µM and < 0.01 µM	0.0436 µM and 0.0351 µM	0.00758 µM and < 0.0106 µM	1.12 µM and 1.26 µM	0.00212 µM and < 0.01 µM	0.0433 µM and 0.023 µM
COC(=O)c1c2c(c(C)[n+]([O-])c1C)C(=O)C=C(NCc1ccc(F)c(Cl)c1)C2=O	1.26 µM	3.26 µM	0.171 µM	0.64 µM	0.718 µM	2.33 µM	0.27 µM	0.895 µM	2.22 µM	5.49 µM	0.164 µM	0.311 µM	0.269 µM	3.42 µM	1.13 µM	2.46 µM	0.0258 µM	1.35 µM	1.62 µM	6.48 µM
COc1cc2c3c(n(CCCN)c(=O)c2cc1OC)-c1cc2c(cc1/C3=C\CCN)OCO2	1.45 µM	5.9 µM	8.29 µM	19.2 µM	5.95 µM	36.7 µM	9.09 µM	> 73.9 µM	4.92 µM	> 28 µM	4.55 µM	11.8 µM	2.5 µM	11.2 µM	4.41 µM	14.8 µM	1.7 µM		11 µM	55.7 µM
COc1cc(-c2nn(-c3cccc(NC(=O)Nc4cc(C(F)(F)F)cc(C(F)(F)F)c4)c3)cc2-c2ccncc2)ccc1Cl	1.14 µM	11.7 µM	0.755 µM	2.21 µM	0.749 µM	1.55 µM	0.551 µM	11.9 µM	0.719 µM	2.46 µM	0.629 µM	1.3 µM	0.675 µM	1.43 µM	0.841 µM	2.15 µM	0.783 µM	1.52 µM	1.16 µM	8.81 µM
COc1ccc2c(=O)c3ccoc3n(CC=C(C)C)c2c1		> 100 µM		> 100 µM		> 100 µM		> 96.6 µM		> 100 µM		> 69.3 µM		> 100 µM		> 81.1 µM		> 100 µM		> 100 µM
CC(C)(C)c1nn(-c2ccccc2)c2c1C(=O)CSC(c1ccccc1Cl)N2 (centres undefined)	1.61 µM	5.97 µM	2.78 µM	14.7 µM	4.47 µM	21.8 µM	2.28 µM	10.2 µM	11.1 µM	29.4 µM	0.966 µM	11 µM	3.57 µM	16 µM	0.545 µM	3.11 µM	2.74 µM	15.7 µM	1.26 µM	7.22 µM
Cc1cc2nc3c4cc(N)ccc4n(CCN(C)C)c3nc2cc1C	0.896 µM	4.1 µM	1.21 µM	5.14 µM	0.687 µM	14.7 µM	0.947 µM	4.24 µM	1.99 µM	7.54 µM	1.48 µM	2.88 µM	1.12 µM	7.61 µM	0.912 µM	2.72 µM	0.461 µM	3.27 µM	2.06 µM	9.81 µM
N#Cc1nc2c(S(=O)(=O)c3ccccc3)c(N)n(Cc3cccnc3)c2nc1C#N	28.9 µM	> 100 µM	> 100 µM	> 100 µM	17.4 µM	41.4 µM	3.71 µM	> 100 µM	26.1 µM	97 µM	> 100 µM	> 100 µM	11.8 µM	52.2 µM	2.47 µM	9.1 µM	25.8 µM	> 100 µM	1.81 µM	5.52 µM
COc1cc2cc(Oc3ccc(NC(=O)Nc4cccc(C(F)(F)F)c4)cc3)c(C)nc2cc1OC	1.8 µM	5.6 µM	1.09 µM	3.66 µM	2.33 µM	8.44 µM	1.56 µM	3.91 µM	2.26 µM	9.93 µM	1.08 µM	2.66 µM	1.13 µM	4.15 µM	1.63 µM	4.97 µM	1.84 µM	6.61 µM	1.44 µM	4.22 µM
NC(N)=N/N=C\c1cccc(OCc2ccccc2)c1	6.74 µM	25.9 µM	1.82 µM	4.07 µM	5.16 µM	19.1 µM	2.66 µM	6.35 µM	12.6 µM	39.1 µM	1.66 µM	3.12 µM	2.37 µM	6.11 µM	2.54 µM	6.64 µM	1.78 µM	3.4 µM	9.12 µM	28.7 µM
O=C1/C(=C/c2ccccc2)CN(C(=O)c2cccnc2)C/C1=C\c1ccccc1	3.12 µM	9.79 µM	3.2 µM	11 µM	3.02 µM	10.4 µM	2.34 µM	11.5 µM	3.57 µM	13.4 µM	1.8 µM	3.68 µM	1.92 µM	4.83 µM	1.72 µM	3.3 µM	0.21 µM	0.483 µM	5.56 µM	41.5 µM
N[C@@H]1CCCC[C@H]1N.O=C([O-])C(=O)[O-].[Pt+4]	2.55 µM	17 µM	10.7 µM	> 81.1 µM	46.2 µM	> 100 µM	2.83 µM	> 100 µM	21.2 µM	74 µM	1.14 µM	13.3 µM	> 100 µM	> 100 µM	8.13 µM	> 39.8 µM	1.13 µM	> 100 µM	> 100 µM	> 100 µM
O=C(CN1CCN(CCCOc2c(-c3ccccc3)oc3ccccc3c2=O)CC1)Nc1ccc(Cl)cc1C(=O)c1ccccc1Cl	13.9 µM	40.2 µM	4.59 µM	20.5 µM	10.4 µM	28.1 µM	> 100 µM	> 100 µM	16.6 µM	54.1 µM	5.93 µM	25.2 µM	4.26 µM	19.3 µM	2.57 µM	8.79 µM	3.87 µM	14.4 µM	8.45 µM	60.8 µM
Nc1ncnc2c1nc(Cl)n2C1OC2COP(=O)(O)OC2C1O (centres undefined)		> 155 µM		> 300 µM		163 µM and > 100 µM		> 209 µM		> 222 µM		> 300 µM		> 300 µM		> 300 µM		> 300 µM		> 280 µM
O=C(Nc1cccc(Cl)c1)c1ccc(NC2=C(Cl)C(=O)N(Cc3ccccc3)C2=O)cc1	14.8 µM	31 µM	21.3 µM	49.7 µM	18.2 µM	33 µM	3.79 µM	15.2 µM	16.4 µM	49.5 µM	7.81 µM	19.4 µM	8.08 µM	31.9 µM	9.55 µM	24.7 µM	4.24 µM	9.27 µM	18.6 µM	48.5 µM
O=C1CCCCCCCC/C=C\CC(c2ccco2)O1 (centres undefined)	21 µM	64.1 µM	24.2 µM	72.5 µM	15.6 µM	62.3 µM	12 µM	31 µM	> 100 µM	> 100 µM	18.9 µM	36.9 µM	14.6 µM	41.9 µM	21.5 µM	65.2 µM	32.3 µM	51.6 µM	32.4 µM	> 100 µM
CC1(C)N=C(N)N=C(N)N1c1ccc(OCCCCOc2ccc(S(=O)(=O)F)cc2)c(Cl)c1	0.58 µM	28.1 µM	0.581 µM	14.1 µM	0.269 µM	12.9 µM	0.0595 µM	13.7 µM	1.13 µM	20.7 µM	0.346 µM	8.5 µM	1.9 µM	23.9 µM	0.363 µM	23.2 µM	0.0761 µM	14.3 µM	4.85 µM	34.3 µM
CC[C@H](Nc1nc(NCc2cnc(C)cc2C)c2ncn(C(C)C)c2n1)[C@@H](C)O	0.267 µM	0.934 µM	0.41 µM	> 100 µM	0.356 µM	> 59.7 µM	0.27 µM	0.744 µM	0.625 µM	> 100 µM	0.219 µM	0.498 µM	0.313 µM	> 100 µM	0.179 µM	0.389 µM	0.252 µM	> 67.5 µM	0.281 µM	0.956 µM
COc1ccc(-n2nnnc2-c2c[nH]c3c(F)cc(F)cc23)cc1	> 100 µM	> 100 µM	> 100 µM	> 100 µM	37.5 µM	> 100 µM	> 100 µM	> 100 µM	> 100 µM	> 100 µM	> 100 µM	> 100 µM	27.1 µM	> 100 µM	16.2 µM	45.4 µM	86.6 µM	> 100 µM	> 100 µM	> 100 µM
CC1=C2C[C@H]3[C@@H](CC[C@@H]4CC(NS(C)(=O)=O)CC[C@@]43C)[C@@H]2CC[C@@]2(C1)O[C@@H]1C[C@H](C)CN[C@H]1[C@H]2C (some centres undefined)	5.44 µM	21.1 µM	6.28 µM	18.9 µM	11.3 µM	24.8 µM	6.12 µM	21.4 µM	11.3 µM	24.4 µM	2.18 µM	5.63 µM	5.68 µM	18.8 µM	3.65 µM	15.6 µM	5.48 µM	16.3 µM	11.8 µM	37.5 µM
COc1ccccc1CCN=C1NC(=O)/C(=C/c2ccc3ncccc3c2)S1	7.28 µM	24.7 µM	7.52 µM	> 25 µM	8.17 µM	> 25 µM	4.2 µM	14.7 µM	4.48 µM	> 21.7 µM	5.92 µM	17.6 µM	9.39 µM	> 25 µM	5.5 µM	16.9 µM	3.15 µM	18.2 µM	7.39 µM	> 18.1 µM
O=C1NC(O)C(c2c[nH]c3ccccc23)=C1c1c[nH]c2ccccc12 (centres undefined)	> 25 µM	> 25 µM	> 25 µM	> 25 µM	> 25 µM	> 25 µM	> 25 µM	> 25 µM	> 25 µM	> 25 µM	> 25 µM	> 25 µM	> 16.5 µM	> 25 µM	> 25 µM	> 25 µM	> 22.5 µM	> 25 µM	25 µM	> 25 µM
